Experimental data reported in patent US20030157704A1, “Reagents and methods for identifying and modulating expression of genes regulated by CDK inhibitors” (priority 2001, published 2003).

Key:
Type in all cases: cell-based, human
HT1080 p16-5 cells = experiment: Cell cycle distribution by FACS analysis of DNA content; conditions: 50 μM IPTG, 24 hrs
Method: This cell population was subcloned, and 20 clonal cell lines were isolated and tested for IPTG-inducible growth inhibition. Cell line showing the strongest growth inhibition was designated HT1080 p16-5. This cell line has been deposited on Jan. 31, 2002 in the American Type Culture Collection (A.T.C.C.), Manassas, Va. and given Accession Number PTA-4020. […] Fractions of cells in different phases of the cell cycle were determined using FACS analysis of DNA content after staining with propidium iodide as described by Jordan et al. (1996, Cancer Res. 56:816-825) using Becton Dickinson FACSort. Cell cycle distribution stabilized after 24 hrs of IPTG treatment, by which time 93% of IPTG-treated cells were arrested in G1. Such G1 arrest is expected from the inhibition of CDK4/6 by p16.

HS 15.T cells = experiment: Mitogenic activity assay, 3H-thymidine incorporation; conditions: 60 hr in media then 24 hrs 3H-thymidine
Method: To verify the induction of secreted mitogenic and anti-apoptotic factors by p21, conditioned media from IPTG-treated HT1080 p21-9 cells were tested to investigate whether they would have an effect on cell growth and apoptosis. In these experiments, conditioned media were prepared by plating 10^6 HT1080 p21-9 cells per 15 cm plate in the presence of DMEM/10% FCS. The next day, IPTG was added to a final concentration of 50 μM, and this media was replaced three days later with DMEM supplemented with 0.5% FCS and 50 μM IPTG. Two days later (days 3-5 of IPTG treatment), this conditioned media was collected and stored at 4° C. up to 15 days before use. Control media were prepared by adding IPTG-free DMEM/0.5% FCS to untreated cells grown to the same density as IPTG-treated cells and collecting the media two days thereafter.
The slow-growing human fibrosarcoma cell line HS 15.T was used to detect mitogenic activity in these conditioned media. For mitogenic activity assays, both types of conditioned media, as well as fresh media and 1:1 mixtures of conditioned media and fresh media were used to test mitogenic activity. In these experiments, the conditioned media were supplemented with 1% or 2% FCS. […] Cells were then collected and their ^3H-thymidine incorporation determined as described by Mosca et al. (1992, Mol. Cell. Biol. 12: 4375-4383).

p21 = p21 protein level after IPTG induction (ELISA)
Method: FIG. 2A is a graph of the time course of p21 induction after the addition of 50 μM IPTG, where p21 levels were determined by ELISA.
p21 expression from the LNp21CO3 vector in HT1080 p21-9 cells was induced by culturing the cells in DMEM medium containing 10% fetal calf serum (Hyclone, Logan, Utah) and IPTG. […] Upon removing the cells from IPTG-containing media, p21 expression fell about as rapidly as it had risen, returning to pre-induction levels at about 24 hours after IPTG was removed (FIG. 2B).

NK4 promoter = experiment: Luciferase assay in LuNK4p21 cell line (NK4 promoter-luciferase, IPTG-inducible p21)
Method: This assay was performed as follows. Cells were plated at a density of 40,000 cells/well in 12 well plates in 1 mL of media containing penicillin/streptomycin, glutamine and 10% fetal calf serum (FCS). After attachment, cells were treated with 50 μM IPTG or left untreated for different periods of time. Luciferase activity was then measured as described in Example 8 above. An additional aliquot was removed from the cell lysate to measure protein concentration using the Bio-Rad protein assay kit (Bradford assay). Luciferase activity for each sample was normalized to protein content and expressed as luciferase activity/μg protein.
Luciferase assays were performed substantially as described in Example 9. Luciferase activity was measured after 16 hrs of incubation with or without 50 μM IPTG, followed by an additional 20 hr treatment in the presence or in the absence of 20 mM sodium salicylate, 1 mM sulindac, or 10 mM aspirin. […] NSAID concentrations were based on the pharmacologic concentrations of these agents in the serum of patients required for their anti-inflammatory properties (Yin et al., 1998, ibid.).

CC(C)S[C@@H]1O[C@H](CO)[C@H](O)[C@H](O)[C@H]1O [IPTG, isopropyl-β-thiogalactoside]
cells arrested in G1 (HT1080 p16-5 cells): 93% | 3H-thymidine incorporation (HS 15.T cells): no effect | time of peak p21 expression post-induction (p21; 50 μM IPTG): about 24 hours | increase of p21 levels in IPTG-treated cells (p21; HT1080 p21-9 cells): 15-20 fold | treatment period at which most of the induction is achieved (NK4 promoter; 50 μM IPTG): 17 h | increase of luciferase expression (NK4 promoter; 50 μM IPTG, absence of NSAID): 3-4 fold | IPTG concentration at which most of the induction is achieved (NK4 promoter; 24 hrs of IPTG treatment): 5 µM | increase in luciferase levels in IPTG-treated cells (NK4 promoter; LuNK4p21 cell line): approximately 3 fold
